These are literature values, as cited in PubChem BioAssay AID1259409 (Chemical Carcinogenesis Research Information System (CCRIS), 2018).

The series relates to rodent chemically induced tumor inhibition, incidence and multiplicity. In words: CCRIS tumor inhibitor studies.

On to `Oc1ccccc1`, for which the “tumour outcome (control, treated, inhibition, significance)” value is listed as 100%, 100%, 0%, not significant (Carcinogen: BENZO[A]PYRENE, 50-32-8, Dose [Inhibitor]: 0.03 MMOL/G OF DIET STARTING 8 D BEFORE AND CONTINUING THROUGH 3 D AFTER LAST CARCINOGEN TREATMENT (STUDY DURATION: 148, Route [Inhibitor]: ORAL, Species: MOUSE, Strain/Sex: ICR/FEMALE, Target Tissue: Type of Lesion: FORESTOMACH: NEOPLASM, Dose [Carcinogen]: 1 MG IN 0.2 ML CORN OIL 2/WK FOR 4 WK, Promoter: NONE USED); 14/50 (28%), 7/50 (14%), 50%, not calculated (Carcinogen: BENZO[A]PYRENE, 50-32-8, Dose [Inhibitor]: 3 MG IN 0.1 ML ACETONE 3/WK ADMINISTERED SIMULTANEOUSLY WITH CARCINOGEN FOR DU RATION OF STUDY (STUDY DURATION: 368 D), Route [Inhibitor]: DERMAL, Species: MOUSE, Strain/Sex: ICR/FEMALE, Target Tissue: Type of Lesion: SKIN: PAPILLOMA, Dose [Carcinogen]: 5 UG IN 0.1 ML ACETONE 3/WK FOR DURATION OF STUDY, Promoter: NONE USED); 10/50 (20%), 3/50 (6%), 70%, not calculated (Carcinogen: BENZO[A]PYRENE, 50-32-8, Dose [Inhibitor]: 3 MG IN 0.1 ML ACETONE 3/WK ADMINISTERED SIMULTANEOUSLY WITH CARCINOGEN FOR DURATION OF STUDY (STUDY DURATION: 368 D), Route [Inhibitor]: DERMAL, Species: MOUSE, Strain/Sex: ICR/FEMALE, Target Tissue: Type of Lesion: SKIN: SQUAMOUS CARCINOMA, Dose [Carcinogen]: 5 UG IN 0.1 ML ACETONE 3/WK FOR DURATION OF STUDY, Promoter: NONE USED).

As to `O=C(O)c1cc(O)c(O)c(O)c1`, the “tumour outcome (control, treated, inhibition, significance)” value (Carcinogen: 7,12-DIMETHYLBENZ[A]ANTHRACENE, 57-97-6, Dose [Inhibitor]: 0, 12 MG 2/WK FOR 30 WK APPLIED 20 MIN PRIOR TO EACH PROMOTER DOSE (STUDY DURATION: 32 WK), Route [Inhibitor]: DERMAL, Species: MOUSE, Strain/Sex: SENCAR/FEMALE, Target Tissue: Type of Lesion: SKIN: PAPILLOMA, Dose [Carcinogen]: 25 NMOL ONCE, Promoter: M-CHLOROPEROXYBENZOIC ACID, 937-14-4) is listed as 39%, 3%, 92%, not calculated; the “tumour outcome (control, treated, inhibition, significance)” value (Carcinogen: 7,12-DIMETHYLBENZ[A]ANTHRACENE, 57-97-6, Dose [Inhibitor]: 0, 20 UMOL IN 0.4 ML ACETONE 20 MIN PRIOR TO EACH PROMOTER DOSE (STUDY DURATION: 47 WK), Route [Inhibitor]: DERMAL, Species: MOUSE, Strain/Sex: CF-1/FEMALE, Target Tissue: Type of Lesion: SKIN: CARCINOMA, Dose [Carcinogen]: 100 NMOL IN 0.2 ML ACETONE ONCE) is listed as 67%, 28%, 58%, p<0.005; the “tumour outcome (control, treated, inhibition, significance)” value (Carcinogen: 7,12-DIMETHYLBENZ[A]ANTHRACENE, 57-97-6, Dose [Inhibitor]: 0, 20 UMOL IN 0.4 ML ACETONE 20 MIN PRIOR TO EACH PROMOTER DOSE (STUDY DURATION: 47 WK), Route [Inhibitor]: DERMAL, Species: MOUSE, Strain/Sex: CF-1/FEMALE, Target Tissue: Type of Lesion: SKIN: PAPILLOMA, Dose [Carcinogen]: 100 NMOL IN 0.2 ML ACETONE ONCE) is 94%, 80%, 15%, not calculated; the “tumour outcome (control, treated, inhibition, significance)” value (Carcinogen: BENZO[A]PYRENE, 50-32-8, Dose [Inhibitor]: 1% AQUEOUS SOLUTION 3/WK FOR A TOTAL OF 80 APPLICATIONS BEGINNING POST CARCINOGEN DOSE (STUDY DURATION: 567-580 D), Route [Inhibitor]: DERMAL, Species: MOUSE, Strain/Sex: CD-1/MALE, FEMALE, Target Tissue: Type of Lesion: SKIN: TUMOR, Dose [Carcinogen]: 0.53-0.6 MG ONCE, Promoter: NONE USED) is reported as 15/50 (30%), 15/50 (30%), 0%, not significant.

In the case of `CCc1cccc2c3c([nH]c12)C(CC)(CC(=O)O)OCC3` (stereo not given), the “tumour outcome (control, treated, inhibition, significance)” value (Carcinogen: N-NITROSOBIS(2-HYDROXYPROPYL)AMINE, 53609-64-6, Dose [Inhibitor]: 0, 0.015% IN DIET FOR 8 WK BEGINNING POST CARCINOGEN TREATMENT (STUDY DURATION: 20 WK), Route [Inhibitor]: ORAL, Species: RAT, Strain/Sex: WISTAR/MALE, Target Tissue: Type of Lesion: LUNG: ADENOCARCINOMA, Dose [Carcinogen]: 2,000 PPM IN DRINKING WATER FOR 12 WK, Promoter: NONE) is given as 60%, 46%, 23%, not calculated; the “tumour outcome (control, treated, inhibition, significance)” value (Carcinogen: N-NITROSOBIS(2-HYDROXYPROPYL)AMINE, 53609-64-6, Dose [Inhibitor]: 0, 0.015% IN DIET FOR 8 WK BEGINNING POST CARCINOGEN TREATMENT (STUDY DURATION: 20 WK), Route [Inhibitor]: ORAL, Species: RAT, Strain/Sex: WISTAR/MALE, Target Tissue: Type of Lesion: LUNG: SQUAMOUS CELL CARCINOMA, Dose [Carcinogen]: 2,000 PPM IN DRINKING WATER FOR 12 WK, Promoter: NONE) is recorded as 20%, 0%, 100%, not calculated; the “tumour outcome (control, treated, inhibition, significance)” value (Carcinogen: N-NITROSOBIS(2-OXOPROPYL)AMINE [60599-38-4], Dose [Inhibitor]: 10 MG/KG BW ORALLY 3X A WEEK FOR 18 WK (STUDY DURATION: 22 WK), Route [Inhibitor]: ORAL, Species: HAMSTER, Strain/Sex: SYRIAN GOLDEN/FEMALE WITH BILIOENTEROSTOMY, Target Tissue: Type of Lesion: BILE DUCT: ADENOMA, Dose [Carcinogen]: 10 MG/KG BW EVERY 2 WK FOR 18 WK (STUDY DURATION: 22 WK)) is 15/17 (88%), 11/18 (61%), 31%, not significant; the “tumour outcome (control, treated, inhibition, significance)” value (Carcinogen: N-NITROSOBIS(2-OXOPROPYL)AMINE [60599-38-4], Dose [Inhibitor]: 10 MG/KG BW ORALLY 3X A WEEK FOR 18 WK (STUDY DURATION: 22 WK), Route [Inhibitor]: ORAL, Species: HAMSTER, Strain/Sex: SYRIAN GOLDEN/FEMALE WITH BILIOENTEROSTOMY, Target Tissue: Type of Lesion: BILE DUCT: CARCINOMA, Dose [Carcinogen]: 10 MG/KG BW EVERY 2 WK FOR 18 WK (STUDY DURATION: 22 WK)) was 15/17 (88%), 6/18 (33%), 63%, p< 0.01.

Regarding `CC(C)(C)c1cc(O)c(C(C)(C)C)cc1O`, the “tumour outcome (control, treated, inhibition, significance)” value (Carcinogen: BENZO[A]PYRENE, 50-32-8, Dose [Inhibitor]: 0.03 MMOL/G OF DIET DAILY STARTING 8 D BEFORE AND CONTINUING THROUGH 3 D AFTER CARCINOGEN TREATMENT FOLLOWED BY OBSERVAT, Route [Inhibitor]: ORAL, Species: MOUSE, Strain/Sex: ICR/FEMALE, Target Tissue: Type of Lesion: FORESTOMACH: NEOPLASM, Dose [Carcinogen]: 1 MG IN 0.2 ML CORN OIL 2/WK FOR 4 WK, Promoter: NONE USED) is on record as 90%, 95%, -6%, not significant.

Turning to `CSC(=S)NCc1c[nH]c2ccccc12`, the “tumour outcome (control, treated, inhibition, significance)” value is recorded as 95%, 65%, 32%, not significant (Carcinogen: 7,12-DIMETHYLBENZ[A]ANTHRACENE, 57-97-6, Dose [Inhibitor]: 0, 0.5% IN 0.2 ML ACETONE APPLIED 1 HR PRIOR TO PROMOTER DOSE 2/WK FOR 12 WK (STUDY DURATION: 90 D), Route [Inhibitor]: DERMAL, Species: MOUSE, Strain/Sex: CD-1/MALE, Target Tissue: Type of Lesion: SKIN: TUMOR, Dose [Carcinogen]: 50 UG IN 0.2 ML ACETONE ONCE, Promoter: 12-O-TETRADECANOYLPHORBOL-13-ACETATE, 16561-29-8); 95%, 50%, 50%, p<0.03 (Carcinogen: 7,12-DIMETHYLBENZ[A]ANTHRACENE, 57-97-6, Dose [Inhibitor]: 0, 1% IN 0.2 ML ACETONE APPLIED 1 HR PRIOR TO PROMOTER DOSE 2/WK FOR 12 WK (STUDY DURATION: 90 D), Route [Inhibitor]: DERMAL, Species: MOUSE, Strain/Sex: CD-1/MALE, Target Tissue: Type of Lesion: SKIN: TUMOR, Dose [Carcinogen]: 50 UG IN 0.2 ML ACETONE ONCE, Promoter: 12-O-TETRADECANOYLPHORBOL-13-ACETATE, 16561-29-8); 95%, 55%, 42%, p<0.03 (Carcinogen: 7,12-DIMETHYLBENZ[A]ANTHRACENE, 57-97-6, Dose [Inhibitor]: 0, 1% IN 0.2 ML ACETONE APPLIED 1 HR PRIOR TO PROMOTER DOSE 2/WK FOR 12 WK BEGINNING 5 D PRIOR TO CARCINOGEN DOSE (STUDY, Route [Inhibitor]: DERMAL, Species: MOUSE, Strain/Sex: CD-1/MALE, Target Tissue: Type of Lesion: SKIN: TUMOR, Dose [Carcinogen]: 50 UG IN 0.2 ML ACETONE ONCE, Promoter: 12-O-TETRADECANOYLPHORBOL-13-ACETATE, 16561-29-8).
